A short description of data set [1]: in vitro. It is filed as in vitro ADME. Conditions: fraction unbound in OCI-Ly1 DC50 assay medium.
Data set [2] is described as follows: Microsomal clearance assay (RLM). It is filed as in vitro ADME. Conditions: female, Sprague-Dawley, pH 7.4; rat liver microsomes, 1 μM compound. On the procedure:
(§1) 6. Supplementary experimental: in vitro DMPK assays
(§2) 6.1 Microsomal clearance assay
(§3) Microsomal clearance was determined in female CD1 mice, female Sprague–Dawley rats, and mixed gender human liver microsomes obtained from BioIVT (Peterborough, U.K.) following incubation of 1 μM compound at 37 °C in 0.5 mg/mL microsomal protein, 3 mmol/L MgCl2, 1 mmol/L NADPH, 2.5 mmol/L and 10 mmol/L phosphate buffer (pH 7.4) (all purchased from Sigma-Aldrich, Gillingham, U.K). Reactions were started by addition of the cofactors following 10 min preincubation of microsomes with test compound and were terminated at −1, 0, 5, 10, 15, and 30 min with three volumes of ice-cold methanol containing internal standard. Samples were centrifuged at 2800g for 30 min at 4 °C and the supernatants analyzed.
(§4) Control incubations were prepared as above with omission of cofactors. Compound measurements were […]
(§5) separation with a 3 min gradient of 0.1% formic acid in methanol on a Kinetex C18, 50 × 2.1 mm 2.6 μm UPLC column (Phenomenex, Macclesfield, UK). […]

Data set [3] is described as follows: in vitro. It is filed as in vitro ADME. Conditions: BALB/c; mouse plasma, rapid equilibrium dialysis; read-out: mouse (BALB\c) PPB (converted). (In general: In equilibrium dialysis only unbound substance equilibrates across the membrane.)
Data set [4] can be described thus: Microsomal clearance assay (HLM). It is filed as in vitro ADME. Conditions: both sexes, pH 7.4; human liver microsomes, 1 μM compound. On the procedure:
as §1, §2, §3, §4, §5
(In general: Liver microsomes are vesicles of endoplasmic reticulum, rich in cytochrome P450 enzymes.)

A short description of data set [5]: in vitro. It is filed as in vitro ADME. To be noted: pH 7.4, 10 µM, 16 h at 30 °C.
A short description of data set [6]: logD7.4 assay (Chrom log D method). It is filed as physicochemical. Conditions: reversed-phase HPLC on Phenomenex Luna C8 column, pH 7.4, read-out: Measured logD7.4. The essentials: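 Samples at 1mM in 10% DMSO/90% Trizma buffer (100mM Trizma in 75/25 methanol/water) injected onto a C8 column at 30°C under gradient elution at 2 mL/min. Retention calibrated against calibration and validation standards.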

A short description of another data set: NMR solubility assay. It is filed as physicochemical. To be noted: kinetic solubility by NMR in HEPES buffer at pH 8, 4% DMSO; read-out: Aq. Sol.
A short description of data set [7]: In vivo pharmacokinetic study in Balb/C mice. To be noted: female Balb/C mice. The arrangement: species or system mouse.
The nature of data set [8]: Microsomal clearance assay (MLM). It is filed as in vitro ADME. Conditions: mouse liver microsomes, 1 μM compound. In a few lines:
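Compound (1 µM) was incubated at 37 °C with female CD1 mouse, female Sprague–Dawley rat or mixed-gender human liver microsomes (0.5 mg/mL protein) in 10 mmol/L phosphate, pH 7.4, with 3 mmol/L MgCl2. After 10 min preincubation, 1 mmol/L NADPH started the reaction. Samples taken up to 30 min were methanol-quenched and analysed by LC-MS.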

Data set [9] has as its target endogenous BCL6 in OCI-Ly1 cells (Homo sapiens, UniProt P41182). Kind of data set: cell-based.
Data set [10] has as its target T1, human BCL6 BTB domain (Homo sapiens, UniProt P41182). In words: biochemical. To be noted: BCL6 TR-FRET IC50 individual replicates, single replicate values. Background: TR-FRET usually uses a lanthanide donor and a delayed reading to cut background.
Protocol: (§6) Assays were performed in a 384-well black Proxiplate (Perkin Elmer) containing 1 nM Trx-6xHis-BCL6 (in
(§7) anti-6xHis-Terbium cryptate (CisBio Bioassays, France), in assay buffer (25 mM Hepes pH8, 100 mM NaCl,
(§8) 0.05% Tween20, 0.5 mM TCEP, 0.05% bovine serum albumin). Test compounds in DMSO or DMSO alone
(§9) were added to the wells using an ECHO550 acoustic dispenser (Labcyte Inc) to give the appropriate test
(§10) concentration in 0.7% v/v DMSO final. After 2 hours incubation at room temperature the plate was read
(§11) The % inhibition at each concentration was calculated by normalising FRET ratio to the
(§12) appropriate high (DMSO with all reagents) and low (DMSO without BCL6) controls. IC50 values were
(§13) determined using GraphPad Prism 6.0 or Dotmatics (Bishops Stortford, UK) software by fitting the
(§14) normalised data to a sigmoidal four-parameter logistic fit equation.
Data set [11] addresses T1, human BCL6 BTB domain.
Protocol: as §6, §7, §8, §9, §10, §11, §12, §13, §14
Another data set is described as follows: HPLC solubility assay. It is filed as physicochemical. To be noted: solubility by HPLC in PBS buffer and 1% DMSO at pH 7.4.
Where [12] appears, read: OCI-Ly1, read-out: MSD degrader assay [OCI-Ly1] Dmax, mean maximal degradation of BCL6, OCI-Ly1 cells, 2 h.

Values after ≈ are worked out from the molar mass of the structure shown. Values joined by “and” are separate entries in the source; they are usually repeats but may differ in a detail not shown here. Equal values may be shown once. Read-outs that look alike come from different tables or passages of the source. Marks after values point to notes of the source that are not given here.

Protocol for HPLC solubility assay: 11 4.2 HPLC solubility assay
10 µL of 10 mM DMSO stock solution was pipetted into a micro centrifuge tube (1.5 mL, Sarstedt part-no.
seconds on vortex mixer (Grant-bio vortex mixer) to create 100 µM solution with 1% DMSO. Following shaking of the suspension on a Bohdan Shaker at 500 rpm for 2 hours at room temperature (20 °C), it was
The concentration of the solubilized compound in solubility sample is measured by HPLC with UV detection using an external standard which was prepared by pipetting 10 µL of the same batch of
The detail of the HPLC method is as following: chromatographic separation at 30°C is carried out over a 5 minute gradient elution method from 90:10 to 10:90 water:methanol (both modified with 0.1% formic acid) at a flow rate of 1.5 mL/min. Calibration curve is prepared by injecting 0.5, 2.5, and 5 µL of compound

One may read the microsomal CLint as the capacity of the preparation to metabolise the compound, expressed as a volume cleared per time. By half-life is commonly meant the time needed for the level to fall by half in the phase considered. The low end stands for fast loss, the high end for slow loss. A word on the Cmax: it is the maximum level reached in the sampled fluid or tissue. A word on the Dmax: it is the greatest extent of degradation seen. Take `C[C@@H]1CN(c2ncc(Cl)c(Nc3ccc4c(c3)n(CCC(C)(C)O)c(=O)n4C)n2)C[C@H](C)C1(F)F` [2 CCT369260, 5-((5-Chloro-2-((3R,5S)-4,4-difluoro-3,5-dimethylpiperidin-1-yl)pyrimidin-4-yl)amino)-3-(3-hydroxy-3-methylbutyl)-1-methyl-1,3-dihydro-2H-benzo[d]imidazol-2-one]: in the data set “in vitro [1]”, the “fu,media” value is 0.022. The figures for the microsomal CLint at 0.5 h, 1 µM in data set [2] and in data set [4] were 10 µL/min/mg and 11 µL/min/mg, respectively. In addition, the fraction unbound in the data set “in vitro [3]” was 0.0004. The “PAMPA (pH 7.4)” value in the data set “in vitro [5]” was determined as 33 ×10–6 cm s–1. For the same compound, the chromatographic logD in data set [6] was found to be 4.3. Moreover, the solubility kinetic at 20 h in the data set “NMR solubility assay” came to 11 µM (≈ 5.6 µg/mL). For the same compound, in data set [7], the “CL as % Qh” value is reported as 22 % Qh. The compound further returned a CL in data set [7] (1 mg/kg i.v.) of 1.19 L/h/kg. Also, the Vd in data set [7] (mouse, in vivo, 1 mg/kg, read-out: Vss) stood at 2.1 L/kg. In [7] (mouse, in vivo, po, 5 mg/kg), this compound showed a half-life at 6 h of 1.4 h. In [7] (mouse, in vivo, 1 mg/kg i.v. and 5 mg/kg p.o.), this compound came in with a Cmax of 1580 nM. This compound registered a F in data set [7] (oral bioavailability, 5 mg/kg p.o. vs 1 mg/kg i.v.) of 54%. The same compound displayed a CLu in [7] (unbound clearance) of 2803.9 L/h/kg. In addition, the “CLint (MLM)” value in [8] came to 78 μL/min/mg protein. In addition, in [9] (setting [12]), the Dmax was 99.3%.
The IC50 is the concentration at which inhibition is half-maximal. As for `Cn1c(=O)c2c(c3cc(Nc4nc(N5CCC(F)(F)[C@@H](CO)C5)ncc4Cl)ccc31)N[C@@H](C1CC1)C(F)(F)CO2` [9a, (S)-10-((5-Chloro-2-((R)-4,4-difluoro-3-(hydroxymethyl)piperidin-1-yl)pyrimidin-4-yl)amino)-2-cyclopropyl-3,3-difluoro-7-methyl-1,2,3,4-tetrahydro-[1,4]oxazepino[2,3-c]quinolin-6(7H)-one], the IC50 on human BCL6 BTB domain [10] was 1.3 nM and 2.2 nM (2×) and 0.9 nM and 4 nM; on human BCL6 BTB domain [11] (read-out: BCL6 TR-FRET IC50, geometric mean, BCOR-AF633 peptide, 2 h incubation), 1.5 nM. Moreover, the fraction unbound in the data set “in vitro [1]” (bovine, read-out: fu,media) is 0.088. For the same compound, the microsomal CLint at 0.5 h, 1 µM in [2] worked out at 9 µL/min/mg; in [4], 14 µL/min/mg; in data set [8] (female, CD1, pH 7.4), 142 µL/min/mg. Besides, the “BCL6 TR-FRET pIC50 mean” value at human BCL6 BTB domain [11] (mean of replicates) was 8.8118. Further, the “Aq. Sol.” value in the data set “HPLC solubility assay” is 13^f μM and 13 ^e μM. In addition, the “PAMPA (pH 7.4)” value in the data set “in vitro [5]” amounted to 21 ×10–6 cm s–1. The chromatographic logD in data set [6] stood at 3.2. Also, the maximal degradation (Dmax) was determined as 76.7% in data set [9] (OCI-Ly1, read-out: MSD degrader assay [OCI-LY1] Dmax individual replicates, single replicate values) and 82.8% in [9] (setting [12]). In addition, the “degradation of BCL6 (in words)” value in data set [9] (OCI-Ly1 MSD assay) is “fully degraded the protein”. The “MSD degrader assay [OCI-Ly1] Dmax” value in data set [9] (mean maximal degradation of BCL6, OCI-Ly1 cells, 2 h) was found to be 83%. Moreover, the “MSD degrader assay [OCI-LY1] pDC50 mean” value in data set [9] (mean of replicates) was 8.5622. For the same compound, the DC50 in data set [9] (read-out: Calculated free DC50 [OCI-Ly1], DC50 corrected with fu,media) was 0.24 nM; in [9] (read-out: MSD degrader assay [OCI-LY1] DC50 individual replicates, single replicate values), 2.5 nM and 3 nM; in [9] (read-out: MSD degrader assay [OCI-Ly1] DC50, geometric mean, OCI-Ly1 cells, 2 h incubation), 2.7 nM. Also, the “MSD degrader assay [OCI-LY1] Dmax individual replicates” value in [9] (single replicate values) was 89.0%.

The values are drawn from PMC9234961 (Journal of Medicinal Chemistry, 2022).
